# Measurements from US20200023003A1 (FENNEC PHARMACEUTICALS INC., priority 2018, published 2020).
# Values joined by “and” are separate entries in the source; they are usually repeats but may differ in a detail not shown here. Equal entries are not always repeated. Where two headings read alike, the source gives them in different places.
# Assays:
# [1] = Dynamic vapor sorption (DVS) isotherm; settings: for DVS weight loss upon desorption: hysteresis observed
# [2] = Description: It is a white to off-white crystalline solid, that is soluble in water, but insoluble in alcohol. The aqueous solution is practically neutral with a pH ranging from 6.5 to 9.0. The molecular formula is Na2S2O3. It has a molecular weight of 158.11 g/mol. The structural formula is: […]
# [3] = system: pediatric patients being treated with platinum based chemotherapeutics
# Description: Reference is made to International Patent Application Publication No. WO 2019/108592, which is a continuation of U.S. patent application Ser. No. 15/826,243, filed on Nov. 29, 2017, both of which are incorporated by reference herein in their entirety.
# [4] = for Cisplatin Concentration: 24° C.
# Description: The method uses a Waters Acquity H-Class HPLC system with an Imtakt Scherzo SW-C18 mixed mode column. The HPLC method conditions are outlined in Table 7. […] This range covers greater than two orders of magnitude at dose-relevant concentrations.
# Each sample was transferred to an HPLC vial and placed in an autosampler chamber held at 24° C. Samples were injected onto the HPLC system approximately every 30 minutes to obtain 4 time-points for each sample. A gradient was run and the retention time and peak area were obtained.
# [5] = system: small cell lung cancer cell cultures; settings: cited from earlier work
# [6] = system: pediatric patients being treated with a platinum based chemotherapeutic
# Description: These adverse events comprise grade 3 or grade 4 neutropenia, reduced glomerular filtration rates, increased serum creatinine, infection, hypomagnesemia, hypernatremia, vomiting, or nausea.
# [7] = cited from earlier work
# [8] = animals
# [9] = thiosulfate:cisplatin 5:1 (n = 2)
# [10] = thiosulfate:cisplatin 6:1 (n = 2)
# [11] = thiosulfate:cisplatin 10:1 (n = 2)
molecule,measurement,setting,value
"O=S([O-])([O-])=S.[Na+].[Na+] [anhydrous sodium thiosulfate, Sodium thiosulfate anhydrous]",DVS weight change upon equilibration to 0% relative humidity,[1]; 0% relative humidity,minimal weight change
same,DVS weight loss upon desorption,[1],51%
same,DVS weight gain upon sorption,[1],165%
same,solubility in alcohol,[2]; alcohol,insoluble
same,solubility in water,[2]; water,soluble
O.O.O.O.O.O=S([O-])([O-])=S.[Na+].[Na+] [sodium thiosulfate pentahydrate],DVS weight loss upon desorption,[1],51%
same,DVS weight loss upon drying,[1]; drying,27%
same,DVS weight gain upon sorption,[1],81%
Sodium thiosulfate [STS],ototoxicity in pediatric patients,"[3]; STS after a platinum based chemotherapeutic (e.g., cisplatin)",significantly reduced ototoxicity
same,hearing protection,"[3]; dose equivalent to 5.1 g/m^2 sodium thiosulfate for injection, preliminary clinical studies",did not show hearing protection
same,prevention of ototoxicity,[3]; doses equivalent to 6.4 to 12.8 g/m^2 sodium thiosulfate for injection,prevented ototoxicity
same,survival,[3]; treatment 6 hours after completion of each CIS infusion,did not affect survival
same,Half-life (time to reach 333/2 μM cisplatin),[4]; [9],3.3 h
same,Slope (linear regression of cisplatin conc. vs. time),[4]; [9],−0.80 Cisplatin Area/min
same,Cisplatin Concentration,"[4]; thiosulfate:cisplatin 5:1, 4 min",323.7 µM
same,Cisplatin Concentration,"[4]; thiosulfate:cisplatin 5:1, 37 min",294.2 µM and 294.0 µM
same,Cisplatin Concentration,"[4]; thiosulfate:cisplatin 5:1, 70 min",266.8 µM and 268.0 µM
same,Cisplatin Concentration,"[4]; thiosulfate:cisplatin 5:1, 103 min",243.7 µM and 245.3 µM
same,Half-life (time to reach 333/2 μM cisplatin),[4]; [10],3.07 h
same,Slope (linear regression of cisplatin conc. vs. time),[4]; [10],−0.87 Cisplatin Area/min
same,Cisplatin Concentration,"[4]; thiosulfate:cisplatin 6:1, 5 min",325.4 µM and 324.5 µM
same,Cisplatin Concentration,"[4]; thiosulfate:cisplatin 6:1, 38 min",286.4 µM and 293.2 µM
same,Cisplatin Concentration,"[4]; thiosulfate:cisplatin 6:1, 71 min",259.8 µM and 266.2 µM
same,Cisplatin Concentration,"[4]; thiosulfate:cisplatin 6:1, 104 min",235.6 µM and 240.5 µM
same,Half-life (time to reach 333/2 μM cisplatin),[4]; [11],2.27 h
same,Slope (linear regression of cisplatin conc. vs. time),[4]; [11],−1.13 Cisplatin Area/min
same,Cisplatin Concentration,"[4]; thiosulfate:cisplatin 10:1, 4 min",319.5 µM
same,Cisplatin Concentration,"[4]; thiosulfate:cisplatin 10:1, 5 min",320.3 µM
same,Cisplatin Concentration,"[4]; thiosulfate:cisplatin 10:1, 37 min",269.4 µM
same,Cisplatin Concentration,"[4]; thiosulfate:cisplatin 10:1, 38 min",278.5 µM
same,Cisplatin Concentration,"[4]; thiosulfate:cisplatin 10:1, 70 min",235.2 µM
same,Cisplatin Concentration,"[4]; thiosulfate:cisplatin 10:1, 71 min",239.6 µM
same,Cisplatin Concentration,"[4]; thiosulfate:cisplatin 10:1, 103 min",205.6 µM
same,Cisplatin Concentration,"[4]; thiosulfate:cisplatin 10:1, 104 min",209.3 µM
same,effect of STS on cytotoxicity of etoposide,"[5]; immediate or delayed addition of STS, incubation for 72 hours",no reduction of cytotoxicity
same,"effect of STS on anti-tumor activity of doxorubicin, carmustine (BCNU), paclitaxel, or methotrexate",[5]; similar studies,no reduction of anti-tumor activity
same,serum sodium levels,[6]; doses of STS equivalent to 12.8 g/m^2 sodium thiosulfate for injection,"small, transient increase"
same,renal or other toxicities,[6]; pediatric patients treated with a platinum based chemotherapeutic,not exacerbate renal or other toxicities
same,"biological half-life, range",[7]; dependent on dose,16.5-182 minutes
same,biological half-life,[7]; following IV administration,0.65 hours
same,excreted in the urine unmodified,[7]; following IV administration,Up to 95%
same,distribution to the cochlea,[8],distribute to the cochlea
